One assay addresses human GLP-1R (Homo sapiens, UniProt P43220). Put plainly: Agonist activity on human GLP-1R, CRE-luciferase reporter assay (increase in intracellular cAMP as indicator). The class given is cell-based. The arrangement: expressed in transfected cells. The conditions noted are these: hGLP-1R/CRE-luc/CHO-K1 cells, 4 h incubation. The source says:
The human GIPR gene having an identical sequence to Genebank Accession No. U39231 is cloned into a pMSRα-neo vector to prepare hGIPR/pMSRα-neo.
(3) Construction of Reporter Plasmid
Four copies of a cAMP responsive sequence and a Zeocin resistance gene are transferred to pGL3(R2.2)-Basic Vector (Promega) to construct a Cre-luc(Zeo) reporter plasmid.
(5) Construction of Expression Plasmid of Human GLP-1R Gene
The human GLP-1R gene having an identical sequence to Genebank Accession No. NM_002062 is cloned into a pIRESneo3 vector to prepare hGLP-1/pIRESneo3.
(6) Transfer of Human GLP-1R Gene and Reporter Plasmid to CHO-K1 Cell and Obtaining of Expressing Cell
The Cre-luc (Zeo) obtained in (3) and the plasmid hGLP-1/pIRESneo3 obtained in (5) transferred to the CHO-K1 cell to obtain a transformant. Subsequently, the cell line inducing the luciferase expression, hGLP-1R/CRE-luc/CHO-K1 cell, is selected from the obtained transformant by adding GLP-1.
The GLP-1R agonist activity is assayed in the same manner as above using the hGLP-1R/CRE-luc/CHO-K1 cell.
(In general: A reporter such as luciferase makes a cellular process visible.)

The target of the next assay is T1, human GIPR (Homo sapiens, UniProt P48546).
T1 construct: expressed in transfected cells
T1 sequence (P48546 22-466): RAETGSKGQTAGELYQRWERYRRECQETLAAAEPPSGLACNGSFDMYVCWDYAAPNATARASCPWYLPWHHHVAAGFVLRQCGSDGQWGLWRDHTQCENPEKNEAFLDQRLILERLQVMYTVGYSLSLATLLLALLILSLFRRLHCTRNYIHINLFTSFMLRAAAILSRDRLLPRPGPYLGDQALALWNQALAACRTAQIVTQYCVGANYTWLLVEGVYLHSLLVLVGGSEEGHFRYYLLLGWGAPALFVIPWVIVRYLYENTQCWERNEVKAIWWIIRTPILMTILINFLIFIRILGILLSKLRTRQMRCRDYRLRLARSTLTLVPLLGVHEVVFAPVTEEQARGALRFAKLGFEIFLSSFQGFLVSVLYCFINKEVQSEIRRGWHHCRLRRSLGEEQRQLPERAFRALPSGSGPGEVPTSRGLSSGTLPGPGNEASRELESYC
The experiment in a line: Agonist activity on human GIPR, CRE-luciferase reporter assay (increase in intracellular cAMP as indicator). The class given is cell-based. To be noted: for Selectivity Ratio (B/A): GLP1R EC50 / GIPR EC50. The method in brief:
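CHO-K1 cells carrying CRE-luciferase and stably expressing human GIPR, 5×10^3 cells/well, exposed to compound for 4 hours at 37° C.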

For assay [1], the system named is Y2R agonist-induced emesis in dogs. The class given is in vivo, dog. The conditions noted are these: 30 nmol/kg s.c. As to the method:
Example 8 PYY-1119-Induced Vomiting in Dogs
Emetic episodes were counted for 2 hours after administration (by blinded analysis).
Emetic episodes were counted for 2 hours after Y2R agonist administration (by blinded analysis).

Assay [2] relates to morphine (0.6 mg/kg, s.c.)-induced emesis in ferrets. Put plainly: Morphine-induced acute emetic model in male ferrets. The class given is in vivo, ferret. The conditions noted are these: for Retching Latency / Emesis (Retching + Vomiting) Duration / Retching Duration / Vomiting Duration / Fidget Duration / Licking Duration / Retching Frequency / Vomiting Frequency / Emesis (Retching + Vomiting) Latency / Vomiting Latency / Fidget Latency / Licking Latency / Emesis: Duration / Emesis: Frequency / Emesis: No. of animals (responder/used) / Fidget: Duration / Fidget: Frequency / Fidget: No. of animals (responder/used) / Licking: Duration / Licking: Frequency / Licking: No. of animals (responder/used) / Retching: Duration / Retching: Frequency / Retching: No. of animals (responder/used) / Vomiting: Duration / Vomiting: Frequency / Vomiting: No. of animals (responder/used) / Emesis: Latency / Fidget: Latency / Licking: Latency / Retching: Latency / Vomiting: Latency: ferrets, 10 nmol/kg s.c.; for Retching Latency: morphine (0.6 mg/kg, s.c.) administered 4 h after; for Retching Latency / Emesis (Retching + Vomiting) Duration / Retching Duration / Vomiting Duration / Fidget Duration / Licking Duration / Retching Frequency / Vomiting Frequency / Emesis (Retching + Vomiting) Latency / Vomiting Latency / Fidget Latency / Licking Latency: individual animals and Mean; for Retching Latency / Emesis (Retching + Vomiting) Latency / Vomiting Latency: no emetic response = 30 min; for Emesis (Retching + Vomiting) Duration / Retching Duration / Vomiting Duration / Fidget Duration / Licking Duration / Retching Frequency / Vomiting Frequency / Emesis (Retching + Vomiting) Latency / Vomiting Latency / Fidget Latency / Licking Latency: morphine administered 4 h after; for Emesis (Retching + Vomiting) Duration / Retching Duration / Vomiting Duration: cumulative total duration; for Fidget Latency / Licking Latency: no response = 30 min; for Emesis: Duration / Emesis: Frequency / Emesis: No. of animals (responder/used) / Fidget: Duration / Fidget: Frequency / Fidget: No. of animals (responder/used) / Licking: Duration / Licking: Frequency / Licking: No. of animals (responder/used) / Retching: Duration / Retching: Frequency / Retching: No. of animals (responder/used) / Vomiting: Duration / Vomiting: Frequency / Vomiting: No. of animals (responder/used) / Emesis: Latency / Fidget: Latency / Licking: Latency / Retching: Latency / Vomiting: Latency: morphine 0.6 mg/kg s.c. 4 h after drug; for Emesis: Latency / Fidget: Latency / Licking: Latency / Retching: Latency / Vomiting: Latency: non-responders counted as 30 min; for Comment: Anti-Emetic Activity (inhibition) on morphine-induced emesis: male ferrets, summary of the morphine experiments. The method in brief:
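Male ferrets (4 per group) received peptide at 10 or 30 nmol/kg s.c. in 0.09% Tween 80/10% DMSO/saline, or vehicle. Morphine 0.6 mg/kg s.c. was given 4 or 120 h later, and abdominal contractions, vomiting, licking and fidgeting were recorded for up to 360 min.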

[3] abbreviates: female beagle dogs, Y2R agonist 10 μg/kg s.c. at 8 hours postdose.
The mark [4] stands for this setting: female beagle dogs, Y2R agonist 10 μg/kg s.c. at 8 hours postdose, counted for 2 hours.

The values that follow come from patent US20220016215A1, “GIP RECEPTOR AGONIST PEPTIDE COMPOUNDS AND USES THEREOF” (TAKEDA PHAARMACEUTICAL COMPANY LIMITED, priority 2018, published 2022).

Values joined by “and” are separate entries in the source; they are usually repeats but may differ in a detail not shown here. Identical values can stand only once. Like-named read-outs stand apart in the source and are kept apart here. Marks after values point to notes of the source that are not given here. A value given as a limit tells only on which side of the number the result lay.

Chain of human GLP-1R (P43220 24-463): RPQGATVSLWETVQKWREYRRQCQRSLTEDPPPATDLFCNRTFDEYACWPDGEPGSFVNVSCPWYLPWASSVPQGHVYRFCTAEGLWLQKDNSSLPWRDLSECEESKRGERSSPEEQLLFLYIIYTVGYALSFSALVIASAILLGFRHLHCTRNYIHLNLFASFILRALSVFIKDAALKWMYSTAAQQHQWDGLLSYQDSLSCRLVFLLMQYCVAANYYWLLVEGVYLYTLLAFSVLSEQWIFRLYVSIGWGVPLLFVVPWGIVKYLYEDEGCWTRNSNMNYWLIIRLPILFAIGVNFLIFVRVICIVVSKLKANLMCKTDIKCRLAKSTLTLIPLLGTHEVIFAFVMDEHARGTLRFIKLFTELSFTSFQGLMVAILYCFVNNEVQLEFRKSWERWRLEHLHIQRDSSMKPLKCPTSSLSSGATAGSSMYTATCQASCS

Consider `CC[C@H](C)[C@H](NC(=O)[C@H](CC(C)C)NC(=O)[C@H](Cc1c[nH]c2ccccc12)NC(=O)[C@H](CCC(N)=O)NC(=O)[C@@H](NC(=O)[C@H](Cc1ccccc1)NC(=O)[C@H](C)NC(=O)[C@H](CCCNC(=N)N)NC(=O)[C@H](CCC(N)=O)NC(=O)[C@H](C)NC(=O)[C@@H](NC(=O)[C@H](CCCCN)NC(=O)[C@H](CC(=O)O)NC(=O)[C@H](CC(C)C)NC(=O)C(C)(C)NC(=O)[C@@H](NC(=O)[C@H](CO)NC(=O)[C@H](Cc1ccc(O)cc1)NC(=O)[C@H](CC(=O)O)NC(=O)[C@H](CO)NC(=O)[C@@H](NC(=O)[C@H](Cc1ccccc1)NC(=O)[C@@H](NC(=O)CNC(=O)[C@H](CCC(=O)O)NC(=O)C(C)(C)NC(=O)[C@@H](N)Cc1ccc(O)cc1)[C@@H](C)O)[C@@H](C)O)[C@@H](C)CC)[C@@H](C)CC)C(C)C)C(=O)N[C@@H](C)C(=O)NC(C)(C)C(=O)N[C@@H](CCCCN)C(=O)NCC(=O)N[C@@H](CCCCN)C(=O)N[C@@H](CCCCN)C(=O)N[C@@H](CCC(N)=O)C(=O)N[C@@H](CCC(=O)O)C(=O)N[C@@H](Cc1c[nH]c2ccccc12)C(=O)N[C@@H](CCCCN)C(=O)N[C@@H](Cc1c[nH]cn1)C(=O)N[C@@H](CCC(N)=O)C(=O)N[C@H](C(=O)N[C@H](C(=O)N[C@@H](CCC(N)=O)C(=O)N[C@@H](CCCCNC(C)=O)C(N)=O)[C@@H](C)O)[C@@H](C)CC` [Compound 16], for which the EC50 is under 0.02 nM on human GLP-1R (read-out: GLP1R EC50 nM (B)); 0.017 nM at human GLP-1R (read-out: GLP1R pEC50 (converted)); 1 pM on human GIPR (hGIPR/CRE-LUC/CHO-K1 cells, 4 h incubation, read-out: GIPR pEC50 (converted)). Also, the “Selectivity Ratio (B/A)” value at human GIPR was 20.
Regarding “YAibEGTFISDYSIALDK(Lys-(ethylene glycol)2-C15 diacid)HQQDFVNWLLAQRG-OH [Compound 26]”, in assay [1] (dogs, Tables 16 and 17), the “Anti-emetic effects in animal models of emesis (dogs) (in words)” value is “significant anti-emetic effects”. Moreover, in assay [1] (setting [3]), the Duration of emesis is 0.0 ± 0.0 min and the “Latency period of emesis” value was 92.3 ± 55.5 min. Further, in assay [1] (setting [4]), the “No. of animals that did not vomit” value is 3 and the “No. of emetic episodes” value is on record as 0.3 ± 0.5. Further, the “No. of emetic episodes, % Inhibition” value in assay [1] (female beagle dogs, Y2R agonist at 8 hours postdose, decreased ratio of mean emetic episodes vs vehicle group) is “[96.6%]”. In addition, the “Selectivity Ratio (B/A)” value at human GIPR is >100,000.
With “YAibEGTFISDYSIALDKI(Lys-(ethylene glycol)2-C15 diacid)QQDFVNWLLAQRG-OH [Compound 25]”, in assay [2], the “Retching Latency” value is given as 30 min; the “Emesis (Retching + Vomiting) Duration” value is 0 min (4×) and 0.0 min; the “Retching Duration” value was found to be 0 min; the “Vomiting Duration” value is 0 min. Also, in assay [2], the “Fidget Duration” value was 0 min (4×) and 0.0 min; the “Licking Duration” value was 0 min (4×) and 0.0 min; the “Retching Frequency” value is listed as 0; the “Vomiting Frequency” value was 0. In addition, in assay [2], the “Emesis (Retching + Vomiting) Latency” value came to 30 min; the “Vomiting Latency” value is reported as 30 min; the “Fidget Latency” value is 30 min (4×) and 30.0 min; the “Licking Latency” value was 30 min (4×) and 30.0 min. Further, in assay [2], the “Emesis: Duration” value worked out at 0.0 ± 0.0 min, the “Emesis: Frequency” value worked out at 0.0 ± 0.0, the “Emesis: No. of animals (responder/used)” value is reported as 0/4 # and the “Fidget: Duration” value is 0.0 ± 0.0^ min. In assay [2], the “Fidget: Frequency” value came out at 0.0 ± 0.0, the “Fidget: No. of animals (responder/used)” value was 0/4 #, the “Licking: Duration” value is recorded as 0.0 ± 0.0^ min and the “Licking: Frequency” value is 0.0 ± 0.0. In assay [2], the “Licking: No. of animals (responder/used)” value is on record as 0/4 #, the “Retching: Duration” value is listed as 0.0 ± 0.0 min, the “Retching: Frequency” value is reported as 0.0 ± 0.0 and the “Retching: No. of animals (responder/used)” value was 0/4 #. Further, in assay [2], the “Vomiting: Duration” value is on record as 0.0 ± 0.0 min, the “Vomiting: Frequency” value amounted to 0.0 ± 0.0, the “Vomiting: No. of animals (responder/used)” value is given as 0/4 # and the “Emesis: Latency” value came to 30.0 ± 0.0 min. Also, in assay [2], the “Fidget: Latency” value turned out to be 30.0 ± 0.0 min, the “Licking: Latency” value amounted to 30.0 ± 0.0 min, the “Retching: Latency” value worked out at 30.0 ± 0.0 min and the “Vomiting: Latency” value came out at 30.0 ± 0.0 min. Moreover, the “Comment: Anti-Emetic Activity (inhibition) on morphine-induced emesis” value in assay [2] came to 100% inhibition. Also, at human GIPR, the “Selectivity Ratio (B/A)” value is >100,000.
Regarding “YAibEGTFISDYSIELDK(Lys-(ethylene glycol)2-C15 diacid)AAQAFIEWLLAQGPSSGAPPPS-NH2 [Compound 20]”, in assay [2], the “Retching Latency” value came out at 30 min; the “Emesis (Retching + Vomiting) Duration” value was 0 min (4×) and 0.0 min; the “Retching Duration” value was 0 min; the “Vomiting Duration” value stood at 0 min. For the same compound, in assay [2], the “Fidget Duration” value was 0 min (4×) and 0.0 min; the “Licking Duration” value is 0 min (4×) and 0.0 min; the “Retching Frequency” value is given as 0; the “Vomiting Frequency” value was found to be 0. Also, in assay [2], the “Emesis (Retching + Vomiting) Latency” value turned out to be 30 min; the “Vomiting Latency” value was found to be 30 min; the “Fidget Latency” value is 30 min (4×) and 30.0 min; the “Licking Latency” value was 30 min (4×) and 30.0 min. Besides, in assay [2], the “Emesis: Duration” value is 0.0 ± 0.0 min, the “Emesis: Frequency” value turned out to be 0.0 ± 0.0, the “Emesis: No. of animals (responder/used)” value is recorded as 0/4 # and the “Fidget: Duration” value was 0.0 ± 0.0^ min. Moreover, in assay [2], the “Fidget: Frequency” value came to 0.0 ± 0.0, the “Fidget: No. of animals (responder/used)” value is 0/4 #, the “Licking: Duration” value is reported as 0.0 ± 0.0^ min and the “Licking: Frequency” value came out at 0.0 ± 0.0. In assay [2], the “Licking: No. of animals (responder/used)” value was 0/4 #, the “Retching: Duration” value amounted to 0.0 ± 0.0 min, the “Retching: Frequency” value worked out at 0.0 ± 0.0 and the “Retching: No. of animals (responder/used)” value is 0/4 #. In assay [2], the “Vomiting: Duration” value was 0.0 ± 0.0 min, the “Vomiting: Frequency” value is 0.0 ± 0.0, the “Vomiting: No. of animals (responder/used)” value is listed as 0/4 # and the “Emesis: Latency” value was determined as 30.0 ± 0.0 min. Moreover, in assay [2], the “Fidget: Latency” value is 30.0 ± 0.0 min, the “Licking: Latency” value amounted to 30.0 ± 0.0 min, the “Retching: Latency” value was found to be 30.0 ± 0.0 min and the “Vomiting: Latency” value is recorded as 30.0 ± 0.0 min. For the same compound, the “Comment: Anti-Emetic Activity (inhibition) on morphine-induced emesis” value in assay [2] is 100% inhibition. In addition, the “Selectivity Ratio (B/A)” value at human GIPR was >100,000.
